Experimental data from ChEMBL document CHEMBL3351894, “Development and evaluation of ST-1829 based on 5-benzylidene-2-phenylthiazolones as promising agent for anti-leukotriene therapy” (Eur J Med Chem, 2015).
In brackets after ≈: the same amount, converted by molar mass. Activity calls are given as the source filed them. The calls are words filed in the database; no cut-off is given here.

Key:
[1] = Solubility of the compound in DMSO at RT; format: physicochemical
[2] = Solubility of the compound in PBS at pH 7.4 at RT; format: physicochemical
[3] = molecular target: T1, Polyunsaturated fatty acid 5-lipoxygenase (Homo sapiens) (UniProt P09917); assay: Inhibition of 5-LO in human PMNL using arachidonic acid as substrate assessed as product formation at 1 to 10 uM incubated for 15 mins prior to substrate addition measured after 10 mins by HPLC analysis in presence of 10% fetal calf serum
T1 sequence (whole entry): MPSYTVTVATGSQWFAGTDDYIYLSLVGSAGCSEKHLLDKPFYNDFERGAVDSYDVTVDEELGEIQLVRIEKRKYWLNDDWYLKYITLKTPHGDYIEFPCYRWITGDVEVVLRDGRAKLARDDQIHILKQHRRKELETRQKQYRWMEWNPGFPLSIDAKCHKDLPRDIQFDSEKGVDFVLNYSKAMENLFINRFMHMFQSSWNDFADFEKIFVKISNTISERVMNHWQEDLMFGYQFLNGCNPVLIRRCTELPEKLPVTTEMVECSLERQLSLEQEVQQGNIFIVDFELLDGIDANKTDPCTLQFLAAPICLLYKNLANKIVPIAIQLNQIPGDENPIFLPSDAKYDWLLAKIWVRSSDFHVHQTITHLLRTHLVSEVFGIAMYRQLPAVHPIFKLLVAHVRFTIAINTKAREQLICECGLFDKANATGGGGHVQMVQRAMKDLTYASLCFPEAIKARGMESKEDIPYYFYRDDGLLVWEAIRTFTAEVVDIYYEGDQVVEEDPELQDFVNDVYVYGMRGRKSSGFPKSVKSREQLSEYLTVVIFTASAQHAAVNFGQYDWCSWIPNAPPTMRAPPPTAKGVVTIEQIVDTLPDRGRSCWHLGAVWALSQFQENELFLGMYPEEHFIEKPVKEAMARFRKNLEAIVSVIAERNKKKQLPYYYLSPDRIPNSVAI

[4] = molecular target: T1, Polyunsaturated fatty acid 5-lipoxygenase (Homo sapiens); assay: Reversible inhibition of 5-LO in human PMNL using arachidonic acid as substrate assessed as product formation incubated for 15 mins followed by compound washout measured after 10 mins by HPLC analysis
[5] = Cytotoxicity against human U937 cells assessed as cell viability at 100 uM after 48 hrs by WST-1 assay; format: cell-based, U-937; settings: read-out: Activity
[6] = Cytotoxicity against human U937 cells at 100 uM after 48 hrs by LDH assay; format: cell-based; settings: u-937, 48 h
[7] = molecular target: T2, Polyunsaturated fatty acid 5-lipoxygenase (Homo sapiens, UniProt P09917); assay: Inhibition of 5-LO in human PMNL S100 extract using arachidonic acid as substrate incubated for 15 mins prior to substrate addition measured after 10 mins by HPLC analysis
T2 sequence (P09917 whole entry): T1 sequence (whole entry)

[8] = molecular target: T2, Polyunsaturated fatty acid 5-lipoxygenase; assay: Inhibition of 5-LO in human PMNL using arachidonic acid as substrate assessed as product formation incubated for 15 mins prior to substrate addition measured after 10 mins by HPLC analysis
[9] = Cytotoxicity against human U937 cells assessed as cell viability after 48 hrs by WST-1 assay; format: cell-based; settings: U-937, 48 h
[10] = Cytotoxicity against human U937 cells at 30 uM after 48 hrs by LDH assay; format: cell-based; settings: u-937, 48 h
[11] = molecular target: T1, Polyunsaturated fatty acid 5-lipoxygenase (Homo sapiens); settings: 0.01 to 1 uM
Description: Inhibition of 5-LO in human PMNL using arachidonic acid as substrate assessed as product formation at 0.01 to 1 uM incubated for 15 mins prior to substrate addition measured after 10 mins by HPLC analysis in presence of 10% fetal calf serum

Structure (SMILES)	IC50 [7] [nM]	IC50 [8] [nM]	further results
COc1ccc(/C=C2\SC(c3ccc(C)cc3)=NC2=O)cc1			solubility [1]: 10 mM (≈ 3090 µg/mL); solubility [2]: 0.03 mM (≈ 9.28 µg/mL); inhibition [3]: inactive; inhibition [4]: Active
CCCCCC(O)c1cccc(OCc2ccc3ccccc3n2)c1 (stereo unspecified) [REV-5901]			viability at 48 h, 100 µM [5]: < 1%; Activity [6]: 22.5%
COc1ccc(/C=C2\C=C(c3ccc(C)cc3)OC2=O)cc1	> 30000	> 30000	
COc1ccc(/C=C2\SC(c3cccnc3)=NC2=O)cc1	960	2660	
COc1ccc(/C=C2/SC(=S)N(c3ccc(C)cc3)C2=O)cc1	> 30000	> 30000	
Cc1ccc(C2=NC(=O)/C(=C/c3ccc(N4CCOCC4)cc3)S2)cc1	1070	3650	solubility [1]: 10 mM (≈ 3640 µg/mL); solubility [2]: 0.01 mM (≈ 3.64 µg/mL)
Cc1ccc(C2=NC(=O)/C(=C/c3ccc(O)cc3)S2)cc1	330	1130	solubility [1]: 50 mM (≈ 14800 µg/mL); solubility [2]: 0.03 mM (≈ 8.86 µg/mL)
Cc1ccc(C2=NC(=O)/C(=C/c3cccnc3)S2)cc1	280	1240	
COc1ccc(/C=C2\N=C(c3ccc(C)cc3)NC2=O)cc1	7800	1950	
COc1ccc(/C=C2\OC(c3ccc(C)cc3)=NC2=O)cc1	1860	10500	
COc1ccc(/C=C2\SC(c3ccc[n+](C)c3)=NC2=O)cc1	4620	> 30000	
COC1CCC(=Cc2sc(-c3ccc(C)cc3)nc2O)CC1 (stereo unspecified)	590	1560	
Cc1ccc(C2=NC(=O)/C(=C/c3[nH]cnc3C)S2)cc1	6040	14900	
COc1ccc(/N=C2\SC(c3ccc(C)cc3)=NC2=O)cc1	8220	10300	
COc1ccc(/C=C2\S/C(=N/c3ccc(C)cc3)NC2=O)cc1	> 30000	2900	
COc1ccc(Cc2sc(-c3ccc(C)cc3)nc2O)cc1	200	720	solubility [1]: 100 mM (≈ 31100 µg/mL); solubility [2]: 0.08 mM (≈ 24.9 µg/mL)
Cc1ccc(C2=NC(=O)/C(=C/c3cccs3)S2)cc1	860	980	
COC(=O)/C=C/c1ccc(/C=C2\SC(c3ccc(C)cc3)=NC2=O)cc1	180	3610	
COc1ccc(-c2sc(-c3ccc(C)cc3)nc2C)cc1	> 30000	1500	
COc1ccc(NC2(OC)SC(c3ccc(C)cc3)=NC2=O)cc1 (stereo unspecified)	> 30000	> 30000	
COc1ccc(/C=C2/SC(c3ccc(Cl)cc3)=NC2=O)cc1	80	280	solubility [1]: 15 mM (≈ 4950 µg/mL); solubility [2]: 0.03 mM (≈ 9.89 µg/mL)
COc1ccc(C(=C2SC(c3ccc(C)cc3)=NC2=O)c2ccc(OC)cc2)cc1	6150	8550	
Cc1ccc(C2=NC(=O)/C(=C/c3cccc(S(N)(=O)=O)c3)S2)cc1	250	1440	solubility [1]: 30 mM (≈ 10800 µg/mL); solubility [2]: 0.08 mM (≈ 28.7 µg/mL)
Cc1ccc(C2=NC(=O)/C(=C/c3ccc(C(=O)O)cc3)S2)cc1	1460	8360	

Structure (SMILES)	IC50 [7] [nM]	IC50 [8] [nM]	further results
COc1ccc(/C=C2\SC(c3ccncc3)=NC2=O)cc1	440	2990	
Cc1ccc(C2=NC(=O)/C(=C/c3ccc[nH]3)S2)cc1	8020	1580	
COc1ccc(/C=C/C=C2\SC(c3ccc(C)cc3)=NC2=O)cc1	350	220	
COc1ccc(-c2sc(-c3ccc(Cl)cc3)nc2O)cc1	50	10	solubility [1]: 50 mM (≈ 15900 µg/mL); solubility [2]: 0.05 mM (≈ 15.9 µg/mL); IC50 [9]: > 30000 nM; Activity [10]: Non-toxic; inhibition [11]: Active
Cc1ccc(C2=NC(=O)/C(=C/c3ccc(N)cc3)S2)cc1	580	1330	
CC(c1cc2ccccc2s1)N(O)C(N)=O (stereo unspecified) [ZILEUTON]			viability at 48 h, 100 µM [5]: 86.5%; Activity [6]: 1.5%
Cc1ccc(C2=NC(=O)/C(=C/c3ccc(OC(=O)N4CCOCC4)cc3)S2)cc1	330	740	solubility [1]: 10 mM (≈ 4080 µg/mL); solubility [2]: 0.05 mM (≈ 20.4 µg/mL)
Cc1ccc(C2=NC(=O)/C(=C/C34CC5CC(CC(C5)C3)C4)S2)cc1	120	410	
COc1ccc(/C=C2\SC(c3cnccn3)=NC2=O)cc1	300	2870	
COC(=O)c1ccc(/C=C2\SC(c3ccc(C)cc3)=NC2=O)cc1	160	690	
Cc1ccc(C2=NC(=O)/C(=C/c3ccncc3)S2)cc1	330	2190	
Cc1ccc(C2=NC(=O)/C(=C/c3ccc(OCC(=O)N4CCOCC4)cc3)S2)cc1	730	1660	solubility [1]: 20 mM (≈ 8450 µg/mL); solubility [2]: 0.05 mM (≈ 21.1 µg/mL)
Cc1ccc(-c2nc(O)c(C=C3CCCCC3)s2)cc1	350	790	
Cc1ccc(C2=NC(=O)/C(=C/c3ccc(S(C)(=O)=O)cc3)S2)cc1	190	5290	
COc1ccc(/C=C2\C=C(c3ccc(C)cc3)NC2=O)cc1	11800	10300	
Cc1ccc(C2=NC(=O)/C(=C/c3c[nH]c4ccccc34)S2)cc1	> 3000	1070	
Cc1ccc(C2=NC(=O)/C(=C/c3ccc(OCCN4CCOCC4)cc3)S2)cc1	520	2330	solubility [1]: 10 mM (≈ 4090 µg/mL); solubility [2]: 0.03 mM (≈ 12.3 µg/mL)
Cc1ccc(C2=NC(=O)/C(=C/c3ncc[nH]3)S2)cc1	2690	6090	
CC(=O)c1ccc(/C=C2\SC(c3ccc(C)cc3)=NC2=O)cc1	160	580	
COc1ccc(/C=C2\N=C(c3ccc(C)cc3)OC2=O)cc1	> 30000	> 30000	
COc1ccc(-c2sc(-c3ccc(C)cc3)nc2O)cc1	170	430	solubility [1]: 50 mM (≈ 14900 µg/mL); solubility [2]: 0.05 mM (≈ 14.9 µg/mL)
COc1ccc(/C=C2/SC(c3cccc4ccccc34)=NC2=O)cc1	80	120	solubility [1]: 10 mM (≈ 3450 µg/mL); solubility [2]: 0.03 mM (≈ 10.4 µg/mL)
COc1ccc(/C=C2\SC(c3ccc(C)cc3)N(C)C2=O)cc1 (stereo unspecified)	> 30000	940	
